Experimental data from patent publication US20220233558A1, “METHOD AND COMPOSITION FOR PREDICTING EFFICACY OF BCL2/BCL-XL INHIBITORS ON CANCER” (Ascentage Pharma (Suzhou) Co., Ltd., priority 2019, published 2022).

How the values were obtained:
BCL-2:BIM complex = BCL-2:BIM complex (Homo sapiens, UniProt P10415); experiment: MSD advanced ELISA of BCL-2:BIM complex in Toledo and RS4;11 cells; format: cell-based; settings: treated for 24 hours
Protocol: Toledo (a diffuse large B cell lymphoma line) and RS4;11 (an acute lymphocytic leukemia line) were chosen for the study. […] Both BCL-2:BIM and BCL-XL:BIM complex were analyzed following previously established MSD advanced ELISA methods.
BCL-XL:BIM complex [1] = target: T1, BCL-XL:BIM complex (Homo sapiens, UniProt Q07817); experiment: MSD advanced ELISA of BCL-XL:BIM complex in RS4;11 cells; format: cell-based; set-up: endogenous in cells; host or cells: Toledo; settings: treated for 24 hours
Protocol: (§1) MSD advanced ELISA is a method similar to enzyme-linked immunosorbent assay (ELISA) except MSD uses electrochemiluminescence (ECL) as a detection technique while ELISA uses a colormetric reaction. In general, a solution (e.g. cell lysate) containing the protein/complex of interest is added to a substrate (e.g., wells in a plate) coated with a capture antibody specifically binding to a protein of interest. After washing, a second antibody specifically binding to a partner protein that binds to the protein of interest is added. The second antibody (or an antibody binding to the second antibody) is linked to an ECL agent, e.g. a ruthenium (Ru) metal ion, and the substrate contains an electrode. In the presence of the partner protein/protein complex, the second antibody binds to the protein complex, and the ruthenium ion will be close enough proximity to the electrode to trigger an oxidation-reduction reaction that produces light which can be detected by a CCD camera. Compared to a traditional ELISA, MSD has many advantages such as higher sensitivity, better dynamic range, less matric effects, less sample required and better efficiencies. As a result, MSD can be used to detect a protein complex in cell lysate.
(§2) Toledo (a diffuse large B cell lymphoma line) and RS4;11 (an acute lymphocytic leukemia line) were chosen for the study. Cells were treated for 24 hours with compounds specified in FIGS. 6A and 7A (Toledo), and FIGS. 6B and 7B (RS4;11; Compound B, ABT-737 and ABT-263 were used the same concentrations for each cell line) and harvested for complex analysis. Both BCL-2:BIM and BCL-XL:BIM complex were analyzed following previously established MSD advanced ELISA methods.

BCL-XL:BIM complex [2] = target: T1, BCL-XL:BIM complex; experiment: MSD advanced ELISA of BCL-XL:BIM complex in Toledo cells; format: cell-based; set-up: endogenous in cells; host or cells: Toledo; settings: treated for 24 hours
Protocol: as §1, §2

BCL-xL = BCL-xL (Homo sapiens, UniProt Q07817); experiment: Binding affinity to BCL-xL protein
cancer cell lines = experiment: Cell growth inhibitory activity in vitro; format: cell-based; settings: subset of cancer cell lines
Mcl-1 protein = Mcl-1 protein (Homo sapiens, UniProt Q07820); experiment: Binding affinity to Mcl-1 protein
caspase-3 and PARP = experiment: Cleavage of caspase-3 and PARP (apoptosis markers); format: cell-based; settings: in cancer cells and in xenograft tumor tissues
BCL-2 = BCL-2 (Homo sapiens, UniProt P10415); experiment: Binding affinity to BCL-2 protein
[3] = tested on: BCL-2, MCL-1, BIM, PUMA protein levels; experiment: Western blotting of apoptosis proteins in PDX samples; format: in vivo; settings: PDX models, Western blot
Protocol: PDX models (including 8 gastric cancers and 3 esophageal cancers) were selected for trials with BCL-2/BCL-XL dual inhibitor Compound A. Models were treated with 100 mg/kg twice weekly dosing schedule for three weeks, and tumor tissues were harvested for complexes analysis (specified in the figure panels) with MSD methods. Pharmacodynamics (PD) and biomarker studies of Compound A treatment were performed by MSD and Western blotting (WB) assays. Specifically, protein extraction was performed with the sample, level of protein complex was measured by MSD methods, and the level of protein was measured by Western Blotting. TGI for each animal was calculated.

BCL-XL:BIM complex [4] = target: T1, BCL-XL:BIM complex; experiment: MSD assay of BCL-XL complexes in gastric and esophageal cancer PDX models; format: in vivo; set-up: endogenous in cells
Protocol: as §1, with “Compared to a traditional ELISA, MSD has many advantages such as higher sensitivity, better dynamic range, less matric effects, less sample required and better efficiencies. As a result, MSD can be used to detect a protein complex in cell lysate.” left out
PDX models (including 8 gastric cancers and 3 esophageal cancers) were selected for trials with BCL-2/BCL-XL dual inhibitor Compound A. Models were treated with 100 mg/kg twice weekly dosing schedule for three weeks, and tumor tissues were harvested for complexes analysis (specified in the figure panels) with MSD methods. […] TGI for each animal was calculated.

BCL-w = target: T2, BCL-w (Homo sapiens, UniProt Q92843); experiment: Binding affinity to BCL-w protein
T2 sequence (Q92843 1-193): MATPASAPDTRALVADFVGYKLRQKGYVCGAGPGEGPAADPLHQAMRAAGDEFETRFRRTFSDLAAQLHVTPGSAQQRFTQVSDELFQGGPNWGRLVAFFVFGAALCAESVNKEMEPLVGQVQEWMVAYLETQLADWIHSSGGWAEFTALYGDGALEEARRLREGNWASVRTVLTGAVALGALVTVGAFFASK

T1 sequence (Q07817 whole entry, one chain of several): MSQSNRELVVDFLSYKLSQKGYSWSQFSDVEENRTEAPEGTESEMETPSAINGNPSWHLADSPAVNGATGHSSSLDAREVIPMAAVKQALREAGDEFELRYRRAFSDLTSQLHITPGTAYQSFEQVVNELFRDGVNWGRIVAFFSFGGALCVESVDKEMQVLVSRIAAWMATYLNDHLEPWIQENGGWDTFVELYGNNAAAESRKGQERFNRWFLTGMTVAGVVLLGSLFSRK
Sequence of BCL-2:BIM complex (P10415 whole entry, one chain of several): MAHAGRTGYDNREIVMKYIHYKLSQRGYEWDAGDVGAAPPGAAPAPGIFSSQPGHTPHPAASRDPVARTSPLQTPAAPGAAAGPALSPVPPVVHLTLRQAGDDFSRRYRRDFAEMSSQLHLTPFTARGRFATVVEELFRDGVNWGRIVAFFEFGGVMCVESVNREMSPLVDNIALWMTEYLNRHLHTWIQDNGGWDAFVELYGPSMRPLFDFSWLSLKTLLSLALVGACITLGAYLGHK
Sequence of BCL-2 (P10415 whole entry): as the sequence (P10415 whole entry, one chain of several) above
Sequence of Mcl-1 protein (Q07820 whole entry): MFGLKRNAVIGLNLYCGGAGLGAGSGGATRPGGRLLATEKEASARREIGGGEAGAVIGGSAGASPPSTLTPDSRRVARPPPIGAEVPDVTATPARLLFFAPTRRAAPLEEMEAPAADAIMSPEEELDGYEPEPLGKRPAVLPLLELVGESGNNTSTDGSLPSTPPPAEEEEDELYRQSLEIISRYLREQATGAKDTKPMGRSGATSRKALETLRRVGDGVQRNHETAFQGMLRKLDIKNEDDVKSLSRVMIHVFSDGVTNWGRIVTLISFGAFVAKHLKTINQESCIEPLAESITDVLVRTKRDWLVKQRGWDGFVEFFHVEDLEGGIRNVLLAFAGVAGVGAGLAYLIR
Sequence of BCL-xL (Q07817 whole entry): as the sequence (Q07817 whole entry, one chain of several) above

CC1(C)CCC(c2ccc(Cl)cc2)=C(CN2CCN(c3ccc(C(=O)NS(=O)(=O)c4ccc(N[C@H](CCN5CCOCC5)CSc5ccccc5)c(S(=O)(=O)C(F)(F)F)c4)cc3)CC2)C1 [ABT-263] was tested, and the “change in BCL-2:BIM complex” value (BCL-2:BIM complex) was “reduction in BCL-2:BIM complex”, the “disruption of BCL-XL:BIM complex” value (BCL-XL:BIM complex [1]) was “much less disruption of BCL-XL:BIM complex than Compound B” and the “disruption of BCL-XL:BIM complex” value (BCL-XL:BIM complex [2]) was “much less disruption of BCL-XL:BIM complex than Compound B”.

CN(C)CC[C@H](CSc1ccccc1)Nc1ccc(S(=O)(=O)NC(=O)c2ccc(N3CCN(Cc4ccccc4-c4ccc(Cl)cc4)CC3)cc2)cc1[N+](=O)[O-] [ABT-737] was tested, and the “disruption of BCL-XL:BIM complex” value (BCL-XL:BIM complex [1]) was “almost no disruption of BCL-xL:BIM complex” and the “disruption of BCL-XL:BIM complex” value (BCL-XL:BIM complex [2]) was “much less disruption of BCL-XL:BIM complex than Compound B”.

Cc1c(S(C)(=O)=O)c(-c2cc(F)cc(N3CCN(c4ccc(NS(=O)(=O)c5ccc(N[C@H](CCN6CCC(C(=O)O)CC6)CSc6ccccc6)c(S(=O)(=O)C(F)(F)F)c5)cc4)CC3)c2)c(-c2ccc(Cl)cc2)n1C(C)C [Compound B, (R)-1-(3-(4-(N-(4-(4-(3-(2-(4-chlorophenyl)-1-isopropyl-5-methyl-4-(methylsulfonyl)-1H-pyrrol-3-yl)-5-fluorophenyl)piperazin-1-yl)phenyl)sulfamoyl)-2-(trifluoromethylsulfonyl)phenylamino)-4-(phenylthio)butyl)piperldine-4-carboxylic acid] was tested, and the “disruption of BCL-XL:BIM complex” value (BCL-XL:BIM complex [1]) was “more potently disrupted BCL-XL:BIM than BCL-2:BIM complex” and the “disruption of BCL-XL:BIM complex” value (BCL-XL:BIM complex [2]) was “more potently disrupted BCL-XL:BIM than BCL-2:BIM complex”.

Cc1c(S(C)(=O)=O)c(-c2cc(F)cc(N3CCN(c4ccc(NS(=O)(=O)c5ccc(N[C@H](CCN6CCC(C(=O)OCCP(=O)(O)O)CC6)CSc6ccccc6)c(S(=O)(=O)C(F)(F)F)c5)cc4)CC3)c2)c(-c2ccc(Cl)cc2)n1C(C)C [Compound A, (R)-2-(1-(3-(4-(N-(4-(4-(3-(2-(4-chlorophenyl)-1-isopropyl-5-methyl-4-(methylsulfonyl)-1H-pyrrol-3-yl)-5-fluorophenyl)piperazin-1-yl)phenyl)sulfamoyl)-2-(trifluoromethylsulfonyl)phenylamino)-4-(phenylthiol)butyl)piperidine-4-carbonyloxy)ethylphosphonic acid] was tested, and the IC50 (BCL-xL) was 4.4 nM, the “cell growth inhibitory activity” value (cancer cell lines) was “nanomolar potencies” and the “affinity to Mcl-1 protein” value (Mcl-1 protein) was “weak affinity”. The “cleavage of caspase-3 and PARP” value (caspase-3 and PARP) was “effectively induces cleavage of caspase-3 and PARP”, the IC50 (BCL-2) was 1.6 nM and the “BCL-2 and MCL-1 anti-death protein levels after treatment” value [3] was “significantly or in trend increases”. The “pro-death proteins BIM or PUMA levels after treatment” value [3] was “but not pro-death proteins BIM or PUMA”, the “level of BCL-XL:BIM complex after treatment” value (BCL-XL:BIM complex [4]; PDX models, 100 mg/kg twice weekly for three weeks, MSD assay) was “dropped” and the “targeting of BCL-XL versus BCL-2 complex” value (BCL-XL:BIM complex [4]; in PDX) was “better in targeting BCL-XL than BCL-2 complex”. The IC50 (BCL-w) was 9.3 nM.
